Laboratory results reported in patent US20210198277A1, “AMINE-SUBSTITUTED ARYL OR HETEROARYL COMPOUNDS” (Epizyme, Inc., priority 2016, published 2021).
Where two headings read alike, the source gives them in different places.

Biological target: T1, EHMT1 (Homo sapiens, UniProt Q9H9B1)
T1 sequence (Q9H9B1 1-1298): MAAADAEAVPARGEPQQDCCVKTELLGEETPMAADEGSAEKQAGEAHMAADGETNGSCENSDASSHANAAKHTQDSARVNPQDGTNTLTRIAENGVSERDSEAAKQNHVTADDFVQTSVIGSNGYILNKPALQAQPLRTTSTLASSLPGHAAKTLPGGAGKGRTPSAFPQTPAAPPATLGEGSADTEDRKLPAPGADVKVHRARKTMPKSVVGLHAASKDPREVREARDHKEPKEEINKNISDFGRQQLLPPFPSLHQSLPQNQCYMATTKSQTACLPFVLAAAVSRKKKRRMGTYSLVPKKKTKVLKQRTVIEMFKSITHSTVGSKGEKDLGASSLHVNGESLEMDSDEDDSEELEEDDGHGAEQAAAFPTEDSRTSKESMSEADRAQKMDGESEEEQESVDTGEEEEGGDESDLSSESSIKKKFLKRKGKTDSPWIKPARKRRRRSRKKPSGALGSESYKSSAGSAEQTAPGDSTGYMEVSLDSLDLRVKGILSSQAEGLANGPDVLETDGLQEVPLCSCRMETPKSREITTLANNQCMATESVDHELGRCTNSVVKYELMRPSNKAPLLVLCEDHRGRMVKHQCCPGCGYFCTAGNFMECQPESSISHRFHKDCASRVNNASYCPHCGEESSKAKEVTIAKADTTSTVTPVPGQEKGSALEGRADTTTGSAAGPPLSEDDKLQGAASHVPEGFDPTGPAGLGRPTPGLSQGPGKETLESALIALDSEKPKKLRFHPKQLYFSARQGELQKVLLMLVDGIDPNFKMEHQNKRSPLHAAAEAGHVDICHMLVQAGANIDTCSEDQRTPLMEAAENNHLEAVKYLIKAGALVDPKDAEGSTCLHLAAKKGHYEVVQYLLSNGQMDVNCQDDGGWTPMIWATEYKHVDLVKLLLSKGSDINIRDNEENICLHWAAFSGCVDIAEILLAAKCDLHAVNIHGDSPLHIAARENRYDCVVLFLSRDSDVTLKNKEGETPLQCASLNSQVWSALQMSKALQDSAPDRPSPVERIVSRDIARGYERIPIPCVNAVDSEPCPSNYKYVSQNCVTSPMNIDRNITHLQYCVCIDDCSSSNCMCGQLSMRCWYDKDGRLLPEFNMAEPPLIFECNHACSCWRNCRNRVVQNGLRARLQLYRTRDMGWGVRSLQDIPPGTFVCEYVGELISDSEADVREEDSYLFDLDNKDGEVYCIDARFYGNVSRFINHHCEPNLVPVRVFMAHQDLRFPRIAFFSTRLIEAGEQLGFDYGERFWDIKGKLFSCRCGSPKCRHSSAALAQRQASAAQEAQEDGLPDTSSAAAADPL
Experiment: EHMT1 enzyme assay on peptide substrate (EHMT1 PEP)
Assay type: biochemical

[1] = Table VII, read-out: EHMT1 PEP IC50

Row | IC50 (read-out: EHMT1 PEP (IC50 μM)) [µM] | IC50 [1] [µM] | SMILES
1 | 1 to 10 | – | CNc1nc(C2CCCC2)c2cc(OC)c(OCCCN3CCCC3)cc2n1 [Compound 518, 4-cyclopentyl-6-methoxy-N-methyl-7-(3-(pyrrolidin-1-yl)propoxy)quinazolin-2-amine]
2 | 1 to 10 | – | CNc1nc(C2CCN(C(C)=O)CC2)c2cc(OC)c(OCCCN3CCCC3)cc2n1 [Compound 519]
3 | < 0.1 | – | CNc1nc(C2CCNCC2)c2cc(OC)c(OCCCN3CCCC3)cc2n1 [Compound 520]
4 | 1 to 10 | – | CNc1nc(C2CCOCC2)c2cc(OC)c(OCCCN3CCCC3)cc2n1 [Compound 521]
5 | 1 to 10 | – | CNc1nc(C2=CCOCC2)c2cc(OC)c(OCCCN3CCCC3)cc2n1 [Compound 522]
6 | 1 to 10 | – | CNc1nc(C2CCCCC2)c2cc(OC)c(OCCCN3CCCC3)cc2n1 [Compound 523, 4-cyclohexyl-6-methoxy-N-methyl-7-(3-(pyrrolidin-1-yl)propoxy)quinazolin-2-amine]
7 | < 0.1 | – | CNc1cc(C2CCOCC2)c2cc(OC)c(OCCCN3CCCC3)cc2n1 [Compound 524, 6-methoxy-N-methyl-4-(oxan-4-yl)-7-[3-(pyrrolidin-1-yl)propoxy]quinolin-2-amine]
8 | < 0.1 | – | CNc1nc(C2CCN(C(C)C)CC2)c2cc(OC)c(OC[C@@H]3CCN(C4CC4)C3)cc2n1 [Compound 526]
9 | < 0.1 | – | COc1cc2c(C3CCN(C)CC3)nc(N3CCCC3)nc2cc1OCCCN1CCCC1 [Compound 527]
10 | 0.1 to 1 | – | COc1cc2c(C3CCN(C)CC3)nc(N3CCC(F)(F)CC3)nc2cc1OCCCN1CCCC1 [Compound 528]
11 | < 0.1 | – | COc1cc2c(C3CCN(C)CC3)nc(NC3CCCC3)nc2cc1OCCCN1CCCC1 [Compound 529]
12 | < 0.1 | – | CNc1nc(C2CCN(C(C)C)CC2)c2cc(OC)c(OCCCN3CCCC3)cc2n1 [Compound 530]
13 | < 0.1 | – | CNc1nc(C2CCN(C)CC2)c2cc(OC)c(OCCCN3CC4CC4C3)cc2n1 (stereo not shown) [Compound 532]
14 | < 0.1 | – | CNc1nc(C2CCN(CCO)CC2)c2cc(OC)c(OCCCN3CCCC3)cc2n1 [Compound 533]
15 | 1 to 10 | – | CNc1nc(C2CC(C)(C)NC(C)(C)C2)c2cc(OC)c(OCCCN3CCCC3)cc2n1 [Compound 534]
16 | < 0.1 | – | CNc1cc(C2CCN(C)CC2)c2cc(OC)c(OCCCN3CCCC3)cc2n1 [Compound 535]
17 | < 0.1 | – | COc1cc2c(C3CCN(C)CC3)cc(C)nc2cc1OCCCN1CCCC1 [Compound 536]
18 | > 10 | – | CCCCNc1nccc(NC)n1 [Compound 543, N^2-butyl-N^4-methylpyrimidine-2,4-diamine]
19 | – | 0.1 to 1 | CNc1cc(C)nc(Nc2ccc(OC)c(OC[C@@H](O)CN3CCCC3)c2)n1 [Compound 1044]
20 | – | < 0.1 | CNc1cc(C)nc(Nc2ccc(OC)c(OC[C@H](O)CN3CCCC3)c2)n1 [Compound 1045]
21 | – | 1 to 10 | CNc1ccnc(Nc2ccc(OC)c(OC[C@@H](O)CN3CCC3)c2)n1 [Compound 1046]
22 | – | < 0.1 | CNc1cc(C2CCOCC2)c2cc(OC)c(OC[C@H](O)CN3CCC3)cc2n1 [Compound 1108]
23 | – | 0.1 to 1 | CNc1cc(C)nc(Nc2ccc(OC)c(CNCCNC3CCC3)c2)n1 [Compound 1109]
24 | – | < 0.1 | CNc1cc(C)nc(Nc2cnc(OC)c(CNCCN3CCC3)c2)n1 [Compound 1110]
25 | – | < 0.1 | CNc1cc(C2CCOCC2)c2cc(OC)c(CNCCN3CCCC3)cc2n1 [Compound 1111]
26 | – | < 0.1 | CNc1cc(C)nc(Nc2ccc(OC)c(OC[C@H](O)CN(C)C)c2)n1 [Compound 1112]
27 | – | < 0.1 | CCN(C)C[C@@H](O)COc1cc(Nc2nc(C)cc(NC)n2)ccc1OC [Compound 1113]
28 | – | > 10 | CNc1cc(C)nc(Nc2ccc(C)c(C(=O)NCc3ccon3)c2)n1 [Compound 1114]
